In patent US8618043B2, “Use of ADNF polypeptides for treating anxiety and depression” (Ramot at Tel-Aviv University, priority 2003, dated 2013):

Tests used:
[1] = cited from earlier work
[2] = in vivo; cited from earlier work
ND-Swiss male mice = experiment: Morris water maze, chronic intranasal NAP; type: in vivo, mouse; details: eight-month-old mice
Description: ND-Swiss male mice (8 months old; Harlan Sprague Dawley, Inc., Indianapolis, Ind.) were kept under a 12:12 hour light/dark regimen, with food and water available at all times. The mice were kept in the animal care facility of the Tel Aviv University in compliance with institutional and state guidelines.
NAP was custom synthesized by Peninsula (Bachem, Torrance, Calif., USA) or Peptide Technologies (Bethesda, Md., USA). The peptide was dissolved in a solution DD, in which each milliliter included 7.5 mg NaCl, 1.7 mg citric acid monohydrate, 3 mg disodium phosphate dihydrate and 0.2 mg benzalkonium chloride solution (50%). The peptide was administered intranasally every day, 5 days a week, 0.5 μg in 10 μl for each mouse, half the portion in each nostril. The control group received 10 μl of the inert carrier per day. The mice were treated at least 1 h prior to the daily experiment (water maze).
Mice were also subjected to two daily tests in a Morris water maze (diameter 90 cm; depth, 20 cm), as described in WO 01/092333, incorporated herein by reference. Latency to reach the hidden platform over a 90 second test period was recorded. The experiment was performed for 4-5 consecutive days. […] The platform was then removed from the maze and the time spent by the mice in the pool's quarter where the platform used to be was recorded (for 90 seconds). […]

[3] = system: astrocytes from newborn rat cerebral cortex; experiment: Confocal microscopy of microtubule re-organization; type: cell-based
Description: Rat cerebral cortical cells from newborn pups were prepared as before (Bassan et al., 1999). All procedures performed in these studies were conducted in accordance with the Tel Aviv University regulations and were approved by the Animal Care and Use Committee of Tel Aviv University. The use of animals was not excessive and no animal suffering occurred. In short, cerebral cortical tissue was incubated for 20 minutes at 37° C. in Hanks' balanced salt solution+15 mM HEPES, pH 7.3 containing trypsin B (Biological Industries, Beit Haemek, Israel). Dissociated cerebral cortical cells were added to the culture dish with 5% horse serum in DMEM. Cells were plated in a ratio of 1 cortex per two 75 cm^2 cell culture flasks (polystyrene, Corning, N.Y.). The medium was changed 1 day after plating. For astrocyte cultures, cells were split after 10 incubation days and plated in 24 well plates (each flask into 60 wells containing microscope cover glasses (12 mm diameter) and 250 μl medium). Cells were then incubated two additional weeks. For mixed neuroglial cultures, dissociated cerebral cortical cells were plated on a bed of astrocytes 2 weeks after the split and incubated in neuron-specific medium as before (Bassan et al., 1999; Brenneman, & Gozes, J. Clin. Invest. 97:2299-2307 (1996); based on Forsythe & Westbrook, J. Physiol. 396:515-533 (1988)). […]

Bovine MAP-rich tubulin = experiment: Microtubule assembly, absorbance at 350 nm; type: biochemical; details: negative control peptide, concentration not given
Description: A microtubule assembly kit CytoDYNAMIX Screen 01(CDS01) was obtained from Cytoskeleton (Denver, Colo.). Bovine MAP-rich tubulin (HTS01) was resuspended in G-PEM buffer (80 mM PIPES pH 6.9, 1 mM MgCl, 1 mM EGTA and 1 mM GTP) and subjected to polymerization at 37° C. The reaction was performed in 96-well plate. Assembly was monitored with a spectrophotometer SPECTRAmax 190 (Molecular Devices, Sunnyvale, Calif.) employing continuous recording at 350 nm.

Molecule: CC[C@H](C)[C@H](NC(=O)[C@H](CO)NC(=O)[C@@H](NC(=O)[C@@H]1CCCN1C(=O)[C@H](C)NC(=O)[C@@H](N)CC(N)=O)C(C)C)C(=O)N1CCC[C@H]1C(=O)N[C@@H](CCC(N)=O)C(=O)O [NAP]
- brain penetration ([1]; following intranasal administration): brain penetration
- crossing of the blood-brain barrier ([1]; radiolabeled peptides, intranasal, intravenous or intraperitoneal administration): can cross the blood-brain barrier
- adverse side effects in toxicology studies [2]: no adverse side effects
- time to reach the visible platform (motor behavior) (ND-Swiss male mice): 24+7.6

Molecule: VLGGGSALL [C2]
- microtubule re-organization / microtubule-associated morphological change [3]: did not induce
- effect on microtubule assembly (Bovine MAP-rich tubulin): did not affect
